From patent US20190203254A1, “CORTICAL NEURON CELL MODEL OF ALZHEIMER'S DISEASE BASED ON BMI1 DEFICIENCY, AND USES THEREOF” (9636137 Canada Inc., priority 2016, published 2019)

Columns and labels:
shBMI1 neurons [1] = assay type: cell-based, human
Text: FIG. 5 is a panel with pictures and graphs illustrating that BMI1 deficiency in neurons results in activation of MAPT, GSK3b and p53. FIG. 5A: Immunoblots for AD-related proteins in shCTL, shBMI1 and BMI1 overexpressing (BMI1 OE) neurons. Protein expression ratios were established using Ponceau staining and where expression in shCTL neurons was set as 1. FIG. 5B: Confocal analysis of F-Actin (phalloidin), amyloid (PA3), p-Tau (PHF1) and activated caspase-3 (Casp3a) in shBMI1 neurons treated with DMSO, β-secretase inhibitor (BSI), γ-secretase inhibitor (GSI) or y-secretase modulator (GSM). Quantification was established using shCTL neurons set as 1. Scale bar: 40 μm.
Human embryonic stem cells were differentiated into cortical neurons. The differentiation protocol was based on a previous study (Espuny-Camacho, I., et al., Pyramidal neurons derived from human pluripotent stem cells integrate efficiently into mouse brain circuits in vivo. Neuron 77, 440-456, (2013)). However, the Noggin agonist LDN193189 was used to reduce recombinant Noggin concentration. The H9 (WiCell™) and HUES9 (Harvard Stem Cell Institute) cell lines were dissociated using Accutase™ (Innovative Cell Technology #AT-104) and platted on growth factor reduced Matrigel™ (Corning #356231) in PeproGrow™ hES cell media (PeproTech #BM-hESC) supplemented with ROCK™ inhibitor (Y-27632; 10 μM, Cayman Chemical #10005583). Upon 70% of confluency, the media was changed to DDM supplemented with B27 (1× final), Noggin (10 ng/ml, PeproTech #120-10C) and LDN193189 (0.5 μM; Sigma #SML0559). The medium was changed every day. After 16 days of differentiation, the medium was changed to DDM/B27 and replenished every day. At day 24, neural progenitors were manually detached from the plate and mixed with lentiviral supernatant for 30 min at 37° C. Infected neural progenitors were subsequently mixed in DDM/B27 supplemented with ROCK™ inhibitor (Y-27632; 10 μM) and platted on growth factor reduced Matrigel™ coated plates or chamber slides (LabTek™ #154534). Five days after the dissociation/infection, half of the medium was changed for Neurobasal™ A media supplemented with B27 (1× final) and changed again every three days. For 3D cultures, neural progenitors at day 24 were mixed with ice-cold growth factor reduced Matrigel™ (1:20 dilution) and plated onto 8-well chamber slides. After 30 min of incubation at 37° C., fresh Neurobasal™ A/B27 were added.
Sequence-specific oligonucleotides stretch shRNA designed to target the BMI-1 ORF (accession No.: BC011652): were synthetized. Oligo#1 (nt 1061-1081) 5′-CCTAATACT TTCCAGATTGAT-3′ (SEQ ID NO: 3) and oligoScramble (nt 573-591) 5′-GGTACTTCATTGATGCCAC-3′ (SEQ ID NO: 4) were used in this study. These sequences are followed by the loop sequence (TTCAAGAGA) (SEQ ID NO: 5) and finally the reverse complements of the targeting sequences. The double stranded shRNA sequences were cloned downstream of the H1P promoter of the H1 P-UbqC-HygroEGFP plasmid using Age1, SmaI, and XbaI cloning sites. The shRNA-expressing lentiviral plasmids were cotransfected with plasmids pCMVdR8.9 and pHCMV-G into 293FT packaging cells using Lipofectamin™ (Invitrogen) according to the manufacturers instructions. Viral containing media were collected, filtered, and concentrated by ultracentrifugation. Viral titers were measured by serial dilution on 293T cells followed by microscopic analysis 48 hr later. For viral transduction, lentiviral vectors were added to dissociated cells prior to plating. […]

sAD patients = conditions: tested and abandoned in 2014 {De Strooper; cited from earlier work
shBMI1 neurons [2] = experiment: Ab42 levels by ELISA in shBMI1 neurons treated with BSI (FIG. 3H); assay type: cell-based, human; conditions: BSI vs vehicle control
Text: (§1) FIG. 3 is a panel with pictures and graphs illustrating that BMI1 deficiency in neurons results in p-Tau and amyloid accumulation. FIG. 3A: p-Tau (PHF1) accumulation in shBMI1 neurons but not in shCTL neurons (day 14). Scale bar: 40 mm. FIG. 3B: p-Tau (PHF1) accumulation in broken axonal segments of glutamatergic shBMl1 neurons (arrows), and co-localization of p-Tau with vGLUT1 in axonal swellings (arrows in the inset). Scale bar: 40 mm. FIG. 3C: Quantification of PHF1-positive neurons and of p-Tau foci/axon in shCTL (n=3) and shBMI1 (n=3) cultures. All values are mean±SEM. (*) P<0.05; (**) P<0.01 by Student's unpaired t-test. FIG. 3D: Confocal immunofluorescence for the apoptosis marker activated caspase-3 in shCTL and shBMl1 cultures. Scale bar: 40 mm. FIG. 3E: Quantification of activated caspase-3 positive cells in GABA+ and GABA− neuronal populations. All values are mean±SEM. (*) P<0.05 by Student's unpaired t-test. FIG. 3F: Amyloid accumulation in shBMl1 neurons as compared to shCTL neurons using the MOAB2 or PA3 antibodies. Scale bars: 40 mm. FIG. 3G: Confocal immunofluorescence for oligomeric amyloid (NU1) and Ab42 (PA3) of shCTL and shBMI1 neurons treated with beta-secretase inhibitor (BSI) or vehicle control. FIG. 3H: Intracellular and extracellular Ab42 levels in shCTL (n=3) and shBMl1 (n=3) neurons by ELISA. […]

shBMI1 neurons [3] = experiment: Confocal immunofluorescence for oligomeric amyloid (NU1) and Ab42 (PA3) in shBMI1 neurons treated with BSI (FIG. 3G); assay type: cell-based, human; conditions: BSI vs vehicle control
Text: as §1

[4] = BMI1-deficient neurons, working concentration BSI 1 μM, GSI 0.5 μM, GSM 30 μM, FIG. 5B

SMILES | toxicity for BMI1-knockdown human cortical neurons (shBMI1 neurons [1]) | p-Tau localization (shBMI1 neurons [1]; BMI1-deficient neurons, GSI 0.5 μM, FIG. 5B) | amyloid immuno-reactivity (PA3) / C99/amyloid accumulation (shBMI1 neurons [1]; [4]) | p-Tau (PHF1) immuno-reactivity / intensity (shBMI1 neurons [1]; [4]) | most pathological parameters (shBMI1 neurons [1]; BMI1-deficient neurons, working concentration GSI 0.5 μM, GSM 30 μM, FIG. 5B) | neuro-toxicity in sAD patients (sAD patients) | amyloid (Ab42) concentration by ELISA (shBMI1 neurons [2]) | amyloid immunoreactivity (antibodies against Ab42) (shBMI1 neurons [3])
C[C@H](NC(=O)Cc1cc(F)cc(F)c1)C(=O)N[C@H](C(=O)OC(C)(C)C)c1ccccc1 [GSI, DAPT] | toxic | re-localization of p-Tau to the neuronal soma suggested tangle formation | reached saturation levels | reduced | did not improve | high |  | 
C[C@@H](NC(=O)c1cc(C(=O)N[C@@H](Cc2ccccc2)[C@H](O)CNC2CC2)cc(N(C)S(C)(=O)=O)c1)c1ccccc1 [BSI, BSI-IV] |  |  |  |  |  |  | normalized | highly reduced
